Test results published in patent US7476673B2, “Disubstituted chalcone oximes as selective agonists of RARγ retinoid receptors” (Allergan, Inc., priority 2003, dated 2009).

Key:
RARβ [1] = target: T1, RARβ (Homo sapiens, UniProt P10826); assay: ligand binding assay, RARβ; settings: results expressed in Ki numbers, read-out: RAR Binding β
T1 sequence (P10826 1-455): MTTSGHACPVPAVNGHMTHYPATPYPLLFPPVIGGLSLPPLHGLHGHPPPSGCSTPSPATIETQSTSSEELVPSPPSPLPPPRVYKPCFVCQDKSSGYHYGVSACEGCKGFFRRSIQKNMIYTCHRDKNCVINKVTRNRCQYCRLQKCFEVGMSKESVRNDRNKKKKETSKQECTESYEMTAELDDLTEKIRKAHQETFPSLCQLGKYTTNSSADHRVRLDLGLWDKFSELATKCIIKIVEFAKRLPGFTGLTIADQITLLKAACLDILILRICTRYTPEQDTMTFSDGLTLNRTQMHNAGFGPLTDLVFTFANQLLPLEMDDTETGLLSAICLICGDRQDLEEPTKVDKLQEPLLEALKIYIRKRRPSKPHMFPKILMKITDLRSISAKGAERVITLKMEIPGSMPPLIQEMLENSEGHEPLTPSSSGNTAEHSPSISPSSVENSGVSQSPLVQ
Source text: (§1) A holoreceptor transactivation assay and a ligand binding assay which measure the antagonist/agonist like activity of the compounds of the invention, or their ability to bind to the several retinoid receptor subtypes, respectively, are described in published PCT Application No. WO WO93/11755 (particularly on pages 30-33 and 37-41) published on Jun. 24, 1993, the specification of which is also incorporated herein by reference. A detailed experimental procedure for holoreceptor transactivations has been described by Heyman et al. Cell 68, 397-406, (1992); Allegretto et al. J. Biol. Chem. 268, 26625-26633, and Mangelsdorf et al. The Retinoids: Biology, Chemistry and Medicine, pp 319-349, Raven Press Ltd., New York, which are expressly incorporated herein by reference. The results obtained in this assay are expressed in EC50 numbers, as they are also in the chimeric receptor transactivation assay. The results of the ligand binding assay are expressed in Ki numbers. (See Cheng et al. Biochemical Pharmacology Vol. 22 pp 3099-3108, expressly incorporated herein by reference.)
(§2) Table 1 discloses the activity of certain exemplary compounds of the invention in the above-described chimeric RAR receptor transactivation and binding assays.

RARβ [2] = target: T2, RARβ (Homo sapiens, UniProt P10826); assay: chimeric receptor transactivation assay, RARβ; assay type: cell-based; settings: for EC50: chimeric receptor transactivation, read-out: RAR EC50 β; for % Efficiency β: percentage of maximum compared to standard TTNPB
T2 sequence (P10826 183-455 limits assumed): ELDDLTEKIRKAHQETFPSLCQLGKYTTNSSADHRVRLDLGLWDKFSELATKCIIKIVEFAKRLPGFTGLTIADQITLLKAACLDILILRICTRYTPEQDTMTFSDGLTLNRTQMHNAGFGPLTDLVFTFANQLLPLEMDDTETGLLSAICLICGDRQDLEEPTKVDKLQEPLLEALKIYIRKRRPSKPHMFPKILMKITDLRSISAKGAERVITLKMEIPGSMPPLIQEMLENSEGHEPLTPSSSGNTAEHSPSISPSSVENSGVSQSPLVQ
Procedure: (§3) The compounds of the invention were tested in certain assays for activity as agonists of RAR and RXR retinoid receptors. Specifically, one such assay is a chimeric receptor transactivation assay which tests for agonist-like activity in the RARα, RARβ and RARγ receptor subtypes, and which is based on work published by Feigner P. L. and Holm M. (1989) Focus, 112 is described in detail in U.S. Pat. No. 5,455,265. The specification of U.S. Pat. No. 5,455,265 is hereby expressly incorporated by reference.
as §1
(§4) Efficacy in a transactivation assay is expressed as a percentage of the maximum potency attained by the compound compared to a standard which, in this case, is the compound 4-[(1E)-2-(5,6,7,8-tetrahydro-5,5,8,8-tetramethyl-2-naphthalenyl)-1-propenyl]-benzoic acid. (TTNPB) This standard compound is described in PCT Publication WO 2002077169 A2.
as §2

RARα [3] = target: T3, RARα (Homo sapiens, UniProt P10276); assay: ligand binding assay, RARα; settings: results expressed in Ki numbers, read-out: RAR Binding α
T3 sequence (P10276 1-462): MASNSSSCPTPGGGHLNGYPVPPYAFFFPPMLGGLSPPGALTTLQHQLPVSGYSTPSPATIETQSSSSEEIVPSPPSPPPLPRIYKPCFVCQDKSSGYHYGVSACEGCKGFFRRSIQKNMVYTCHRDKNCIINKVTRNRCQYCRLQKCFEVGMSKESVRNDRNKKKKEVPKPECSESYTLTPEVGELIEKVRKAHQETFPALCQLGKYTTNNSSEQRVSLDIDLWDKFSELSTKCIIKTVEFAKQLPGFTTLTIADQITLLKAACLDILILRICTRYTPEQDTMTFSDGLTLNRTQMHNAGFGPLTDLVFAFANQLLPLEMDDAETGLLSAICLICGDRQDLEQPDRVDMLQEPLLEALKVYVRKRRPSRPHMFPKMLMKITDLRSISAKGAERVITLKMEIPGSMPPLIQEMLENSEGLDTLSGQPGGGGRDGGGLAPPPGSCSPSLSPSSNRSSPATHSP
Source text: as §1, §2

RARα [4] = target: T4, RARα (Homo sapiens, UniProt P10276); assay: chimeric receptor transactivation assay, RARα; assay type: cell-based; settings: for EC50: chimeric receptor transactivation, read-out: RAR EC50 α; for % Efficiency α: percentage of maximum compared to standard TTNPB
T4 sequence (P10276 183-417 limits assumed): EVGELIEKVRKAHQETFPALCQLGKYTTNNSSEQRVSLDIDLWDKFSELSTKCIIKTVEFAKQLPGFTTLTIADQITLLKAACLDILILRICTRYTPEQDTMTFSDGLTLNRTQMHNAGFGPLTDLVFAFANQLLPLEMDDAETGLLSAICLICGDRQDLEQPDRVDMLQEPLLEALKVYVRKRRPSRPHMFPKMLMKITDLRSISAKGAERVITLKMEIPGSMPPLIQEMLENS
Procedure: as §3, §1, §4, §2

RARγ [5] = target: T5, RARγ (Homo sapiens, UniProt P13631); assay: ligand binding assay, RARγ; settings: results expressed in Ki numbers, read-out: RAR Binding γ
T5 sequence (P13631 1-454): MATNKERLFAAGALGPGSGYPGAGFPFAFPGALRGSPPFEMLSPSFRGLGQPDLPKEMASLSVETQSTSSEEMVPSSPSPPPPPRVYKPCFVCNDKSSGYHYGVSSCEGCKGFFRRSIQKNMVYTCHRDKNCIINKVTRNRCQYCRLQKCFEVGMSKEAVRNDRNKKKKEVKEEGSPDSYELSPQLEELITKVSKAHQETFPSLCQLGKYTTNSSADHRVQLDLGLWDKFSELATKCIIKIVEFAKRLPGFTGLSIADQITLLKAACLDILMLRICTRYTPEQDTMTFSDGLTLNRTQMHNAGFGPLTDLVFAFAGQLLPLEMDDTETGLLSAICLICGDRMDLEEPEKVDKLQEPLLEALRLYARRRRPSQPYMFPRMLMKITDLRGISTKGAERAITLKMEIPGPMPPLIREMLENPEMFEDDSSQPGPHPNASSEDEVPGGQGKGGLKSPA
Source text: as §1, §2

RARγ [6] = target: T6, RARγ (Homo sapiens, UniProt P13631); assay: chimeric receptor transactivation assay, RARγ; assay type: cell-based; settings: for EC50: chimeric receptor transactivation, read-out: RAR EC50 γ; for % Efficiency γ: percentage of maximum compared to standard TTNPB
T6 construct: % Efficiency γ; other: percentage of maximum compared to standard TTNPB
T6 sequence (P13631 185-454 limits assumed): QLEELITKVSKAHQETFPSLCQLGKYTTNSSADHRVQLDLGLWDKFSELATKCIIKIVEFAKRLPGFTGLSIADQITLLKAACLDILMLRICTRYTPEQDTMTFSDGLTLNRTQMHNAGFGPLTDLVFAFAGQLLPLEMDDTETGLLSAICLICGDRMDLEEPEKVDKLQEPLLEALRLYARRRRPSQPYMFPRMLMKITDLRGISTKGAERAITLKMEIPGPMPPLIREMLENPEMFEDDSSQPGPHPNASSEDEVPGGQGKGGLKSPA
Procedure: as §3, §1, §4, §2

Row | Compound | Ki (RARβ [1]) | EC50 (RARβ [2]) | % Efficiency β (RARβ [2]) | Ki (RARα [3]) | EC50 (RARα [4]) | Ki (RARγ [5]) | EC50 (RARγ [6]) | % Efficiency γ (RARγ [6]) | % Efficiency α (RARα [4])
1 | CC1(C)CCC(C)(C)c2cc(C(C=Cc3ccc(C(=O)O)cc3F)=NO)ccc21 [drawing 10] | 5000 nM | 53 nM | 84% | 8000 nM | > 1000 nM | 4 nM | 0.11 nM | 84% | 
2 | CC1(C)CCC(C)(C)c2cc(C(C=Cc3ccc(C(=O)O)cc3)=NO)ccc21 [drawing 8] | 1300 nM | 31 nM | 102% | 2500 nM | 441 nM | 3 nM | 0.09 nM | 103% | 81%
3 | CC1(C)CCCc2ccc(C(/C=C/c3ccc(C(=O)O)cc3F)=N\O)cc21 | 7000 nM | 4060 nM | 95% | 2100 nM | 345 nM | 132 nM | 14 nM | 123% | 120%
4 | CC1(C)CCSc2ccc(C(C=Cc3ccc(C(=O)O)cc3)=NO)cc21 [drawing 18] | 1080 nM | 79 nM | 87% | 5000 nM | 242 nM | 6 nM | 0.75 nM | 88% | 117%
5 | CC1(C)CC(C)(C)c2cc(C(C=Cc3ccc(C(=O)O)cc3F)=NO)ccc21 | 25000 nM | 114 nM | 79% | 14000 nM | > 1000 nM | 25 nM | 1 nM | 72% | 
6 | CC1(C)CC(C)(C)c2cc(C(C=Cc3ccc(C(=O)O)cc3)=NO)ccc21 [drawing 30] | 17000 nM | 83 nM | 104% | 7000 nM | 148 nM | 6 nM | 0.2 nM | 71% | 55%
7 | CC1=CCC(C)(C)c2cc(C(/C=C/c3ccc(C(=O)O)cc3)=N\O)ccc21 | 3000 nM | 94 nM | 104% | 4000 nM | 515 nM | 36 nM | 4 nM | 95% | 50%
8 | CC1(C)CC(C)(C)c2cc(C(C=Cc3ccc(C(=O)O)cc3)=NO)ccc2O1 [drawing 25] | 5000 nM | 93 nM | 97% | 5000 nM | 135 nM | 10000 nM | 57 nM | 95% | 60%
9 | CC1(C)CCC(C)(C)c2nc(C(C=Cc3ccc(C(=O)O)cc3)=NO)cnc21 [drawing 34] |  | 105 nM | 88% | 27000 nM | 4000 nM | 240 nM | 10 nM | 123% | 41%
10 | CC1(C)CCC(C)(C)c2nc(C(C=Cc3ccc(C(=O)O)cc3)=NO)cnc21 [drawing 35] |  | 77 nM | 110% | 25000 nM | 128 nM | 461 nM | 143 nM | 151% | 54%
11 | CCCCCCCN1C(=O)CC(C)(C)c2cc(C(C=Cc3ccc(C(=O)O)cc3)=NO)ccc21 | 29000 nM |  |  | 11000 nM | > 1000 nM | 51 nM | 10 nM | 11% | 
